Data reported in US10125144B2, “Rho kinase inhibitors” (Kadmon Corporation, LLC, priority 2013, dated 2018).
Residue numbers refer to the chain shown, from its start. Values joined by “and” are separate entries in the source; they are usually repeats but may differ in a detail not shown here. Equal entries are not always repeated. “Also recorded” adds a separate entry of the source. Where two headings read alike, the source gives them in different places.

Experiments:
ROCK1 = ROCK1 (Homo sapiens (Human), UniProt Q13464); experiment: Invitrogen Z'-LYTE kinase assay, ROCK1 inhibition; assay type: biochemical; conditions: 5 uM ATP
Sequence of ROCK1 (Q13464 whole entry): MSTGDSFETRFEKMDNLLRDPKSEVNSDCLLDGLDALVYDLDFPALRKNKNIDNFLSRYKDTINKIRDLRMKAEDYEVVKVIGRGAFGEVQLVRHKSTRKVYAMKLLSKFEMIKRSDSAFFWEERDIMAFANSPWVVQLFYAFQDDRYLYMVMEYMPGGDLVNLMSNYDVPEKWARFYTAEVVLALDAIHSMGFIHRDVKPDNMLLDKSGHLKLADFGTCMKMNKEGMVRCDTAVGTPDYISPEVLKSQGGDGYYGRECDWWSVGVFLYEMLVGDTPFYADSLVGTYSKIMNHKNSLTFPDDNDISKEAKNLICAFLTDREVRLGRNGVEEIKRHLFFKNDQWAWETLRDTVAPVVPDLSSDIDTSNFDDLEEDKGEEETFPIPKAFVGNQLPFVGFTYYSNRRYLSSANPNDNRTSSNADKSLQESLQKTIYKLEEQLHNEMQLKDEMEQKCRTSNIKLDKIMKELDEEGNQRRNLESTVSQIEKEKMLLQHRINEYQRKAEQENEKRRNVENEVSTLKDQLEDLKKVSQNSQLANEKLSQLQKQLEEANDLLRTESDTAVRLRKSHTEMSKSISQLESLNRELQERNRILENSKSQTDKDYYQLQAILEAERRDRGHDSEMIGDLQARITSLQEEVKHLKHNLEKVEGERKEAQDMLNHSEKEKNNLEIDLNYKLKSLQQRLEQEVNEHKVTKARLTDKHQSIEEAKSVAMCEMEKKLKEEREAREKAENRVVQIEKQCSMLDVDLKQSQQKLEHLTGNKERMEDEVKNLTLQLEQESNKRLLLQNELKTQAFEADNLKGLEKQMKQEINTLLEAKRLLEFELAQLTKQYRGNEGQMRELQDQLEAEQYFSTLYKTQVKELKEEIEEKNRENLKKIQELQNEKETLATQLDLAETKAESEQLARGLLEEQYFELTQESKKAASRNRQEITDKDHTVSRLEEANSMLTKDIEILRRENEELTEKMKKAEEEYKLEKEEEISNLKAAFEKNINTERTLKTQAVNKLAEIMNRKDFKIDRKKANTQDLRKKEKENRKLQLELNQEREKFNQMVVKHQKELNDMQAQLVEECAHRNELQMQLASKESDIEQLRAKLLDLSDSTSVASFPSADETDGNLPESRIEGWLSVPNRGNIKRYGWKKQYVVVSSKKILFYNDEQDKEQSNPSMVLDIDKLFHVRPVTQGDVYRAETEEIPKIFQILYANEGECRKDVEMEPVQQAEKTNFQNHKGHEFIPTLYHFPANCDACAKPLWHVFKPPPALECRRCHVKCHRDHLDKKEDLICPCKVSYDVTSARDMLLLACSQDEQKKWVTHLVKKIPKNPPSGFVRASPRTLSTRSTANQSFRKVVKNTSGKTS
From the text: (§1) Dose response curves for Rho-kinase inhibition were derived from a Invitrogen Z′-LYTE™ Kinase Assay Kit (Invitrogen catalog number PV3793). Purified active ROCK1 and ROCK2 were obtained from Invitrogen (catalog numbers ROCK1, PV3691 and ROCK2, PV3759). The kit components include a coumarin and fluorescein labeled peptide based on myosin light chain 2 ([sequence]), a proprietary protease containing development reagent and a proprietary Stop buffer used to terminate the development reaction. The inhibitory activities of compounds are measured according to the manufactures protocol. Briefly, decreasing concentrations of test compounds or the known ROCK inhibitor Y-27963, are added, from 10 uM to 2.56×10^−5 uM to reaction buffer containing 50 mM HEPES pH 7.5, 10 mM MgCl2, 5 mM EGTA, and 0.05% Brij-35 and of ROCK1 at 0.18 ug/mL or ROCK2 at 0.8 ug/mL in assay dilution buffer. This mixture is overlayed into a white 96-well half area plate and the reaction is initiated with the addition of 5 uM ATP for ROCK1 or 12 uM ATP for ROCK2. The assay proceeds at room temperature for 1 hour followed by the addition of development reagent, and further incubation for 1 hour at room temperature. STOP reagent is then added and the reaction and immediately the coumarin and fluorescein emission signals are read on a Tecan Infinite M1000 fluorescence plate reader (excitation: 400 nm; emission 445 and 520 nm, respectively). By comparing the emission ratios of the test samples against control samples, percent phosphorylation values are calculated and the concentration of inhibitor that produces ½ inhibition of kinase activity (IC50) is determined using Prism.

ROCK2 = ROCK2 (Homo sapiens (Human), UniProt O75116); experiment: Invitrogen Z'-LYTE kinase assay, ROCK2 inhibition; assay type: biochemical; conditions: ROCK2 0.8 ug/mL, 12 uM ATP
Sequence of ROCK2 (O75116 whole entry): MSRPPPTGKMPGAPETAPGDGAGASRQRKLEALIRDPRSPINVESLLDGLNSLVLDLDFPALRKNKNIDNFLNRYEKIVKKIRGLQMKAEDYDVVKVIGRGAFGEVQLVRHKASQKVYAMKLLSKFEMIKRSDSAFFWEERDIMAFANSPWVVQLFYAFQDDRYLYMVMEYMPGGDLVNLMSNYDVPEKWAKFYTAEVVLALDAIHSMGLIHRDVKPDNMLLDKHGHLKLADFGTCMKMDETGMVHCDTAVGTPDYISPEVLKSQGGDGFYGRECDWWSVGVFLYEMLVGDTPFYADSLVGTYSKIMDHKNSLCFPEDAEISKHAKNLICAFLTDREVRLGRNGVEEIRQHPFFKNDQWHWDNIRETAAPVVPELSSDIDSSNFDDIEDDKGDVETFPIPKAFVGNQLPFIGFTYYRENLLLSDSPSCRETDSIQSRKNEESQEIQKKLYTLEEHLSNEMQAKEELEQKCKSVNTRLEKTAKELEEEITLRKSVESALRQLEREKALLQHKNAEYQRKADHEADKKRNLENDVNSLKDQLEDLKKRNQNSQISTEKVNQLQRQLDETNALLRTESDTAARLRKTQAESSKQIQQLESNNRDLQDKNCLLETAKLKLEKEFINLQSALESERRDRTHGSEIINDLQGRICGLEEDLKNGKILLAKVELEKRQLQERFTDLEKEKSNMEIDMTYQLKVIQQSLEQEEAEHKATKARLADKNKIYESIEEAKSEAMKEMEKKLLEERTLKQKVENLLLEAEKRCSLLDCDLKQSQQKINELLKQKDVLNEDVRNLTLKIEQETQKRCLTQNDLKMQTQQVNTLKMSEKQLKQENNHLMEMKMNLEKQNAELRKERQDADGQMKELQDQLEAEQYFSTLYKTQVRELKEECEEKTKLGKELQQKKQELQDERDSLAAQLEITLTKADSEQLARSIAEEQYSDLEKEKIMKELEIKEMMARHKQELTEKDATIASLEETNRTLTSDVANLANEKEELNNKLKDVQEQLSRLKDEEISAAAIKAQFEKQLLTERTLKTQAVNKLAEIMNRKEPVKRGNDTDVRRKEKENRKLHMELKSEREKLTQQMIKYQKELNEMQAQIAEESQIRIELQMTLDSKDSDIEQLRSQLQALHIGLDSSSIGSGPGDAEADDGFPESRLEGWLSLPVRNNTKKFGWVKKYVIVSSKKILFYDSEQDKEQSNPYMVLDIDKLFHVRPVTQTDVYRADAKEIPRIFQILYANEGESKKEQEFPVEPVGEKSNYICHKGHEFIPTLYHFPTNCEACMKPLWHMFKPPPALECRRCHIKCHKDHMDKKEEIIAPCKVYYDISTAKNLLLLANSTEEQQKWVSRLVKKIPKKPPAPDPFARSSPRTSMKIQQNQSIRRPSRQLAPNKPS
From the text: as §1

CD4+ human T cells = experiment: cytokine secretion by CD4+ human T cells stimulated with anti-CD3/CD28; assay type: cell-based
From the text: Activation of resting T cells, resulting in cytokine secretion and proliferation, involves two distinct signals from antigen-presenting cells (APCs), mimicked by co-stimulation of the T cell receptor (TCR)/CD3 complex and the CD28 receptor. […] Under the same conditions, the inhibition of IFN-γ and IL-2 was not observed (FIG. 2).

[1] = system: experimental autoimmune encephalomyelitis (EAE); experiment: experimental autoimmune encephalomyelitis (EAE) in mice; assay type: in vivo; conditions: C57BL/6 mice, MOG35-55 in CFA, 150 mg/kg QD or BID
murine VEGFR2 [2] = biological target: T1, murine VEGFR2 (Mus musculus (Mouse), UniProt P35918); experiment: Biacore analysis of binding to murine VEGFR2; conditions: murine antigen
KDR-PAE cells [3] = experiment: proliferation of KDR-PAE cells; assay type: cell-based, porcine
[4] = biological target: binding of murine VEGF with murine VEGFR2 (Mus musculus (Mouse), UniProt P35918); experiment: ELISA ligand blocking, murine VEGF / murine VEGFR2
[5] = biological target: binding of human VEGF with human VEGFR2 (Homo sapiens (Human), UniProt P35968); experiment: ELISA ligand blocking, human VEGF / human VEGFR2
Sequence of binding of human VEGF with human VEGFR2 (P35968 20-764): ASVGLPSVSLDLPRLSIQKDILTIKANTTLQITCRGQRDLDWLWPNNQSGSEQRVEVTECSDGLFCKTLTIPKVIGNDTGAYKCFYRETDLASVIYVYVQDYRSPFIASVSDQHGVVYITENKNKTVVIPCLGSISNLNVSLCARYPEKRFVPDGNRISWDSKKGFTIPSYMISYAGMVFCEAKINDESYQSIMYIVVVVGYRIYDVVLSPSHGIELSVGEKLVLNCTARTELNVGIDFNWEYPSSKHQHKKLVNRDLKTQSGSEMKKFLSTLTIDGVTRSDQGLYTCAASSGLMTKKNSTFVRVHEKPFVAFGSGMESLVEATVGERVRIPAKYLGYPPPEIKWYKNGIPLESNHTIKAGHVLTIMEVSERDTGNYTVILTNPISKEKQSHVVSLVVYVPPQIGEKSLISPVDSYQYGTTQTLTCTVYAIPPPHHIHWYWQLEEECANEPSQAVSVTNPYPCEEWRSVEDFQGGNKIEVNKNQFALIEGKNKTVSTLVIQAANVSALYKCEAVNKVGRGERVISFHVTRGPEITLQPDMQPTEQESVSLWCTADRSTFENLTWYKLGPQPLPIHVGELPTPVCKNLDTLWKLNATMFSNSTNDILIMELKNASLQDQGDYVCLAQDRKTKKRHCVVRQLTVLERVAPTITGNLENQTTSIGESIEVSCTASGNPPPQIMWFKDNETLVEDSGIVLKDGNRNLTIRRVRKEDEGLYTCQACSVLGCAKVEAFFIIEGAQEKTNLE

[6] = system: phosphorylation of KDR and p44/42 in HUVEC; experiment: VEGFR2-mediated signal transduction in HUVEC; assay type: cell-based, human
human VEGFR2 [7] = biological target: T2, human VEGFR2 (Homo sapiens (Human), UniProt P35968); experiment: Biacore analysis of binding to human VEGFR2; conditions: human antigen
T2 sequence (P35968 20-1356): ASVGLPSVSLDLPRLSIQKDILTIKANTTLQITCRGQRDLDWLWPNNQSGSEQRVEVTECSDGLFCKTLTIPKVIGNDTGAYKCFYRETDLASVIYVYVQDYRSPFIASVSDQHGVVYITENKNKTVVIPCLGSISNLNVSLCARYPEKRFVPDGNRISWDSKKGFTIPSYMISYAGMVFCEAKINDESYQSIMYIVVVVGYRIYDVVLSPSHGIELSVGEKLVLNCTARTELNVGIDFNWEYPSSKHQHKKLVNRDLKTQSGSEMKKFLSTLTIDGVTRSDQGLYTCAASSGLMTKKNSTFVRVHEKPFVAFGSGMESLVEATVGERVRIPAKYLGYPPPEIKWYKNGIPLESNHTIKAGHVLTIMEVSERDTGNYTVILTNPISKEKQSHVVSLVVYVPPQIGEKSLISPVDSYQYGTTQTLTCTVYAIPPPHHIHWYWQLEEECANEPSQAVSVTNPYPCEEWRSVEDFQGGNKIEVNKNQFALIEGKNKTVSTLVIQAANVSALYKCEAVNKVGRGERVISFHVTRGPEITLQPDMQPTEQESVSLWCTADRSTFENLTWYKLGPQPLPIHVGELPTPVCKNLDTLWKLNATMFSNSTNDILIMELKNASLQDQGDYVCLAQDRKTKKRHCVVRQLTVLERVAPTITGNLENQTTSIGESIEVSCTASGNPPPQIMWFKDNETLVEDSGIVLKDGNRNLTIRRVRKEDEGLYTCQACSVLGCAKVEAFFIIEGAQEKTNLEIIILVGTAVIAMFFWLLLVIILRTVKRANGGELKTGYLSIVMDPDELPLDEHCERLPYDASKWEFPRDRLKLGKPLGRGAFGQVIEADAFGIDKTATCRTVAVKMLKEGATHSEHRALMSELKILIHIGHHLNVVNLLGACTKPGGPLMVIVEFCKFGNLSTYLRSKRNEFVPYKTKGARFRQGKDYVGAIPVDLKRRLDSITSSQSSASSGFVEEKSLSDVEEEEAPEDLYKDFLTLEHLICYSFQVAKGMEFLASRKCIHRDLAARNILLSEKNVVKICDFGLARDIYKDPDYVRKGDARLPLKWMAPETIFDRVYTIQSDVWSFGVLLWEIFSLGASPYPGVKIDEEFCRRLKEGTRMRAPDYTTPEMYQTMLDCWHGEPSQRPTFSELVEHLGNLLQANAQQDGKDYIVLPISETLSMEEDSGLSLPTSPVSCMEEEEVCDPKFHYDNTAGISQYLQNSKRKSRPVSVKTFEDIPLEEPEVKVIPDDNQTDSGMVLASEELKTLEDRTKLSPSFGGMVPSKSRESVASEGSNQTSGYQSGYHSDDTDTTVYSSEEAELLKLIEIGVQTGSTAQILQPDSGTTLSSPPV

rat VEGFR2 = rat VEGFR2 (Rattus norvegicus (Rat), UniProt O08775); experiment: Biacore analysis of binding to rat VEGFR2; conditions: rat antigen
Protocol: The binding constants of Mab 147 and Mab 149 as well as the parent Mab 160 for human, murine, and rat VEGFR2 were determined by Biacore analysis (Table 4).

KDR-PAE cells [8] = experiment: VEGF-induced migration of KDR-PAE cells; assay type: cell-based, porcine; conditions: VEGF gradient
Protocol: Migration of KDR-PAE cells was induced with a VEGF gradient (50 ng/ml VEGF (up), 100 ng/ml VEGF (low)).

[9] = system: phosphorylation of KDR and p44/42 in KDR-PAE cells; experiment: VEGFR2-mediated signal transduction in KDR-PAE cells; assay type: cell-based, porcine
[10] = biological target: human VEGFR2 on HUVEC and KDR-PAE cells (Homo sapiens (Human), UniProt P35968); experiment: binding to hVEGFR2 on HUVEC and KDR-PAE cells; assay type: cell-based
Sequence of human VEGFR2 on HUVEC and KDR-PAE cells (P35968 20-1356): as above
From the text: Binding of Mab 147 to hVEGFR2 and mVEGFR2 expressed on cell membranes was also confirmed. […] Mab 147 also bound to mVEGFR expressed by MS1 murine endothelial cells (FIG. 8B).

murine VEGFR2 [11] = biological target: T1, murine VEGFR2; experiment: ELISA receptor binding, mVEGFR2
[12] = biological target: VEGFR2 on MS1 murine endothelial cells (Mus musculus (Mouse), UniProt P35918); experiment: binding to VEGFR2 on MS1 murine endothelial cells; assay type: cell-based
human VEGFR2 [13] = biological target: T2, human VEGFR2; experiment: ELISA receptor binding, hVEGFR2

In the case of Clc1ccc2c(c1)CN(c1nccc(Nc3ccc4[nH]ncc4c3)n1)C2 [Example 10, N-(2-(5-Chloroisoindolin-2-yl)pyrimidin-4-yl)-1H-indazol-5-amine], the IC50 (ROCK1) is reported as > 10 µM.

With COc1ccc2c(c1)CN(c1ccnc(Nc3ccc4[nH]ncc4c3)n1)C2 [Example 8, N-(4-(5-Methoxyisoindolin-2-yl)pyrimidin-2-yl)-1H-indazol-5-amine] the IC50 (ROCK1) was > 10 µM.

With COc1ccc2c(c1)CN(c1nc3c(c(Nc4ccc5[nH]ncc5c4)n1)CNC3)C2 [Example 22, N-(1H-Indazol-5-yl)-2-(5-methoxyisoindolin-2-yl)-6,7-dihydro-5H-pyrrolo[3,4-d]pyrimidin-4-amine] the IC50 (ROCK2) was 24.3 µM and 24 µM.

COc1nc(N2Cc3ccccc3C2)nc(Nc2ccc3[nH]ncc3c2)c1OC [Example 32, N-(2-(Isoindolin-2-yl)-5,6-dimethoxypyrimidin-4-yl)-1H-indazol-5-amine] was tested, and the IC50 (ROCK2) was 0.607 µM and the IC50 (ROCK1) was > 10 µM.

With c1cc(Nc2ccc3[nH]ncc3c2)nc(N2CCc3sccc3C2)n1 [Example 12, N-(2-(6,7-Dihydrothieno[3,2-c]pyridin-5(4H)-yl)pyrimidin-4-yl)-1H-indazol-5-amine] the IC50 (ROCK1) was > 10 µM.

COCc1ccc2c(c1)CN(c1nccc(Nc3ccc4[nH]ncc4c3)n1)C2 [Example 27, N-(2-(5-(Methoxymethyl)isoindolin-2-yl)pyrimidin-4-yl)-1H-indazol-5-amine] was tested, and the IC50 (ROCK2) was 0.1 µM and the IC50 (ROCK1) was 6.73 µM.

COc1ccc2c(c1)CN(c1nc3c(c(Nc4ccc5[nH]ncc5c4)n1)CCNC3)C2 [Example 24, N-(1H-Indazol-5-yl)-2-(5-methoxyisoindolin-2-yl)-5,6,7,8-tetrahydropyrido[3,4-d]pyrimidin-4-amine] was tested, and the IC50 (ROCK1) was 2.5 µM.

Molecule Fc1cccc2c1CN(c1nccc(Nc3ccc4[nH]ncc4c3)n1)C2 [Example 29, N-(2-(4-Fluoroisoindolin-2-yl)pyrimidin-4-yl)-1H-indazol-5-amine] has an IC50 (ROCK2) of 0.88 µM.

COc1ccc2c(c1)CN(c1nc3c(c(Nc4ccc5[nH]ncc5c4)n1)CCN(C)C3)C2 [Example 25, N-(1H-Indazol-5-yl)-2-(5-methoxyisoindolin-2-yl)-7-methyl-5,6,7,8-tetrahydropyrido[3,4-d]pyrimidin-4-amine] was tested, and the IC50 (ROCK2) was 0.13 µM and the IC50 (ROCK1) was > 10 µM.

With COc1ccc2c(c1)CN(c1nccc(Nc3ccncc3)n1)C2 [Example 19, 2-(5-Methoxyisoindolin-2-yl)-N-(pyridin-4-yl)pyrimidin-4-amine] the IC50 (ROCK2) was > 10 µM and the IC50 (ROCK1) was > 10 µM.

c1ccc2c(c1)CN(c1nccc(Nc3ccc4[nH]ncc4c3)n1)C2 [Example 2, N-(2-(Isoindolin-2-yl)pyrimidin-4-yl)-1H-indazol-5-amine] was tested, and the IC50 (ROCK1) was > 10 µM.

With N#Cc1ccc2c(c1)CN(c1nccc(Nc3ccc4[nH]ncc4c3)n1)C2 [Example 26, 2-(4-((1H-Indazol-5-yl)amino)pyrimidin-2-yl)isoindoline-5-carbonitrile] the IC50 (ROCK2) was 0.123 µM and the IC50 (ROCK1) was > 10 µM.

For COc1ccc2c(c1)CN(c1nc3c(c(Nc4ccc5[nH]ncc5c4)n1)COCC3)C2 [Example 21, N-(1H-Indazol-5-yl)-2-(5-methoxyisoindolin-2-yl)-7,8-dihydro-5H-pyrano[4,3-d]pyrimidin-4-amine], the IC50 (ROCK2) was 0.185 µM and the IC50 (ROCK1) was > 10 µM.

With COc1ccc2c(c1)CN(c1cc(Nc3ccc4[nH]ncc4c3)ncn1)C2 [Example 13, N-(6-(5-Methoxyisoindolin-2-yl)pyrimidin-4-yl)-1H-indazol-5-amine] the IC50 (ROCK1) was > 10 µM.

COc1ccc2c(c1)CN(c1nc(C)c(C)c(Nc3ccc4[nH]ncc4c3)n1)C2 [Example 16, N-(2-(5-Methoxyisoindolin-2-yl)-5,6-dimethylpyrimidin-4-yl)-1H-indazol-5-amine] was tested, and the IC50 (ROCK2) was > 0.01 µM.

For COc1ccc2c(c1)CN(c1nccc(Nc3ccc4[nH]ncc4c3)n1)C2 [Example 1, N-(2-(5-Methoxyisoindolin-2-yl)pyrimidin-4-yl)-1H-indazol-5-amine], the IFN-γ secretion (CD4+ human T cells) was “not observed”, the IL-2 secretion (CD4+ human T cells) was “not observed” and the IL-17 secretion (CD4+ human T cells) was “dose-dependent; also recorded: significantly inhibited”. The IL-21 secretion (CD4+ human T cells) was “inhibits; also recorded: significantly inhibited”, the “EAE paralysis / mean clinical score” value [1] was “reduces paralysis” and the “EAE paralysis / mean clinical score” value ([1]; listed as compound 1) was “substantial improvement”.

COc1ccc2c(c1)CCN(c1nccc(Nc3ccc4[nH]ncc4c3)n1)C2 [Example 11, N-(2-(6-Methoxy-3,4-dihydroisoquinolin-2(1H)-yl)pyrimidin-4-yl)-1H-indazol-5-amine] was tested, and the IC50 (ROCK1) was > 10 µM.

For Fc1ccc2c(c1)CN(c1nc3c(c(Nc4ccc5[nH]ncc5c4)n1)COC3)C2 [Example 30, 2-(5-Fluoroisoindolin-2-yl)-N-(1H-indazol-5-yl)-5,7-dihydrofuro[3,4-d]pyrimidin-4-amine], the IC50 (ROCK1) was > 10 µM.

In the case of c1cc2c(cn1)CN(c1nccc(Nc3ccc4[nH]ncc4c3)n1)C2 [Example 15, N-(2-(1H-Pyrrolo[3,4-c]pyridin-2(3H)-yl)pyrimidin-4-yl)-1H-indazol-5-amine], the IC50 (ROCK1) is reported as > 10 µM.

With COc1ccc2c(c1)CN(c1nccc(Nc3ccc(-c4ccncc4)cc3)n1)C2 [Example 20, 2-(5-Methoxyisoindolin-2-yl)-N-(4-(pyridin-4-yl)phenyl)pyrimidin-4-amine] the IC50 (ROCK1) was > 10 µM.

COc1ccc2c(c1)CN(c1cc(Nc3ccc4[nH]ncc4c3)nc(C)n1)C2 [Example 14, N-(6-(5-Methoxyisoindolin-2-yl)-2-methylpyrimidin-4-yl)-1H-indazol-5-amine] was tested, and the IC50 (ROCK2) was 0.13 to 0.18 µM and the IC50 (ROCK1) was > 10 µM.

With c1ccc2c(c1)CN(c1nc3c(c(Nc4ccc5[nH]ncc5c4)n1)COC3)C2 [Example 17, N-(1H-Indazol-5-yl)-2-(isoindolin-2-yl)-5,7-dihydrofuro[3,4-d]pyrimidin-4-amine] the IC50 (ROCK1) was > 10 µM.

B1: Mab 147: affinity matured anti-VEGFR2 antibody derived from Mab 138; VH SEQ ID NO:200, VL SEQ ID NO:204 (antibody, V domains shown)
VH: EVQLLESGGGLVQPGGSLRLSCAASGFTFSWYVMGWVRQAPGKGLEWVSSIYPQGGATSYADSVKGRFTISRDNSKNTLYLQMNSLRAEDTAVYYCARGNYFDYWGQGTLVTVSS
VL: DIQMTQSPGTLSLSPGEGATLSCRASQSVSSNYFGWYQQKPGQAPRLLIYGASSRATGIPDRFSGSGSGTDFTLTISRLEPEDSAVYYCQQFDSLPLTFGGGTKVEIKR
modifications: Mutation of library member
For B1, the ka (murine VEGFR2 [2]) was 4.38E+04, the kd (murine VEGFR2 [2]) was 1.28E−03 and the “proliferation of KDR-PAE cells” value (KDR-PAE cells [3]) was “inhibit”. For the same molecule, the “blocking of binding of murine VEGF with murine VEGFR2” value [4] was “blocks ligand binding”, the “blocking of binding of human VEGF with human VEGFR2” value [5] was “blocks ligand binding” and the “phosphorylation of KDR and p44/42” value [6] was “inhibit”. For the same molecule, the “phosphorylation of KDR and p44/42” value ([6]; listed as Mab-147) was “reduced phosphorylation”, the ka (human VEGFR2 [7]) was 1.13E+05 and the kd (human VEGFR2 [7]) was 2.82E−04. The ka (rat VEGFR2) was 6.45E+04, the kd (rat VEGFR2) was 8.99E−04 and the “VEGF-induced migration of KDR-PAE cells” value (KDR-PAE cells [8]) was “inhibiting”. For the same molecule, the “phosphorylation of KDR and p44/42” value [9] was “inhibit”, the “phosphorylation of KDR and p44/42” value ([9]; listed as Mab-147) was “reduced phosphorylation” and the “binding to hVEGFR2 expressed on cell membranes” value [10] was “confirmed”. The “binding to murine VEGFR2” value (murine VEGFR2 [11]) was “binds to both hVEGFR2 and mVEGFR2 with similar affinity”, the “binding to VEGFR2 on MS1 murine endothelial cells” value [12] was “binds; also recorded: bound” and the “binding to human VEGFR2” value (human VEGFR2 [13]) was “binds to both hVEGFR2 and mVEGFR2 with similar affinity”.

B2: Mab 149: affinity matured anti-VEGFR2 antibody derived from Mab 138; VH SEQ ID NO:216, VL SEQ ID NO:220 (antibody, V domains shown)
VH: B1 VH with Q54S, S59N, F102L
VL: B1 VL with L95S, T98S
modifications: Mutated library sequence
For B2, the ka (murine VEGFR2 [2]) was 2.29E+04, the kd (murine VEGFR2 [2]) was 1.81E−03 and the ka (human VEGFR2 [7]) was 8.62E+04. It also gave a kd (human VEGFR2 [7]) of 6.59E−04, a ka (rat VEGFR2) of 3.32E+04 and a kd (rat VEGFR2) of 1.43E−03.
